Data reported in patent publication US5935973A, “Heterocyclcarboxamide derivatives and their use as therapeutic agents” (Knoll Aktiengesellschaft, priority 1995, dated 1999).

Molecular target: T1, α2A-adrenoceptors (Homo sapiens, UniProt P08913)
T1 construct: Human cerebral cortex obtained at post-mortem; from tissue; host or cells: human post-mortem cerebral cortex membranes
T1 sequence (P08913 1-465): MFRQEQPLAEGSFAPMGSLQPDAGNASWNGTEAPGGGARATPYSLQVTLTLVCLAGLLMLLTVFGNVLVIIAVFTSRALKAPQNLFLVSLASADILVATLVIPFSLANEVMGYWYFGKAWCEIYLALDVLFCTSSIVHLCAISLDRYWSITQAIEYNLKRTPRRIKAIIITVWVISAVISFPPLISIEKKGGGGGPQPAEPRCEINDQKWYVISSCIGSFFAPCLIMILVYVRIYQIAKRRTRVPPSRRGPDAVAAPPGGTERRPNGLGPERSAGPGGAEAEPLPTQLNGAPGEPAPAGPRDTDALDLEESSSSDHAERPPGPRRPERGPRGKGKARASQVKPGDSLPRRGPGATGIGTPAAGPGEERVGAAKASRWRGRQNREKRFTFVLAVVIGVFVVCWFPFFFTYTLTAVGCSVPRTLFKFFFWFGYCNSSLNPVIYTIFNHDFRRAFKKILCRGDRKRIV
Experiment: inhibition of tritiated RX 821002 binding to α2A-adrenoceptors in human cerebral cortex
Conditions: for inhibition at 1 µM: at 10^-6 M, tritiated RX 821002, read-out: % displacement of radio ligand, α2A
Description: Human cerebral cortex obtained at post-mortem was homogenised in ice-cold 0.25M sucrose (1:30 w/v) and centrifuged at 1,000 g at 4° C. for 12 minutes. The supernatant was stored on ice and the pellet was rehomogenised in 0.25M sucrose (1:15 w/v) and centrifuged at 850 g at 4° C. for 12 minutes. Combined supernatants were diluted with 5mM Tris-HCl (pH 7.5) containing 5 mM ethylenediamine tetraacetic acid (EDTA), readjusted to pH 7.5 (at 25° C.) with 1M sodium hydroxide to 1:80 w/v, and centrifuged at 11,000 g at 4° C. for 10 minutes. The resulting pellet was resuspended in 50 mM Tris-HCl (pH 7.5) containing 5.68 mM L-ascorbic acid and 0.5 mM EDTA, readjusted to pH 7.5 (at 25° C.) with 1 M sodium hydroxide to 1:80 w/v, and centrifuged at 11,000 g for 10 minutes. The pellet was stored at -80° C. On the day of the assay the pellet was thawed, resuspended in 50 mM Tris-HCl (pH 7.5) containing 5.68 mM L-ascorbic acid and 5 mM EDTA to 1:80 w/v and centrifuged at 11,000 g for 10 minutes. The final pellet was resuspended in 50 mM Tris-HCl (pH 7.5) containing 5.68 mM L-ascorbic acid and 5 mM EDTA (equivalent to 25 mg wet weight of tissue/ml).
Aliquots (400 μl; equivalent to 10 mg wet weight of tissue/tube) of this suspension were added to tubes containing the ligand (50 μl; 0.2 nM) and distilled water (50 μl; total binding) or phentolamine (50 μl; 50 μM; non-specific binding) or test compound (50 μl; at a single concentration of 10^-6 M or at 10 concentrations ranging from 10^-11 -10^-3 M). The ligand was tritiated RX 821002 (2-(2-methoxy-1,4-[6,7(n)-^3 H]benzodioxan-2-yl)-2-imidazoline) and the mixture was incubated at 0° C. for 75 minutes before the incubation was terminated by rapid filtration.
The filters were washed with ice-cold Tris-HCl buffer and dried. The filters were punched out into vials, scintillation fluid added and radioactivity determined by liquid scintillation counting. The percentage displacement of specific binding of the tritiated ligand was calculated for the single concentration (10^-6 M) of test compound. Displacement curves were then produced for those compounds which displaced ≥50% of specific binding of the tritiated ligand at 10^-6 M using a range of concentrations of the compound. The concentration which gave 50% inhibition of specific binding (IC50)was obtained from the curve. The inhibition coefficient Ki was then calculated using the formula [formula] in which [ligand] is the concentration of the tritiated ligand used and KD is the equilibrium dissociation constant for the ligand.

Row | Compound | inhibition at 1 µM | Ki (tritiated RX 821002 0.2 nM, 0° C., 75 min)
1 | Cc1ccc2c(c1)O[C@@H](CN1CCC(CNC(=O)c3cccnc3N)CC1)CO2 [Example 5, (S)-2-amino-N-{[1-(7-methyl-1,4-benzodioxan-2-ylmethyl)-4-piperidyl]methyl}pyridine-3-carboxamide] | 98% | –
2 | O=C(NCC1CCN(CC2COc3ccccc3O2)CC1)c1ccccn1 (stereo not drawn) [Example 6, N-{[1-(1,4-benzodioxan-2-ylmethyl)-4-piperidyl]methyl}pyridine-2-carboxamide] | 100% | –
3 | COc1ccc2c(c1)O[C@@H](CN1CCC(CNC(=O)c3cccnc3N)CC1)CO2 [Example 7, (S)-2-amino-N{[1-(7-methoxy-1,4-benzodioxan-2-ylmethyl)-4-piperidyl]methyl}-pyridine-3-carboxamide] | – | 2.8 nM
4 | O=C(NCC1CCN(CC2COc3ccccc3O2)CC1)c1cccc2cccnc12 (stereo not drawn) [Example 8, N-{[1-(1,4-benzodioxan-2-ylmethyl)-4-piperidyl]methyl}quinoline-8-carboxamide] | 99% | –
5 | Cc1ncccc1C(=O)NCC1CCN(C[C@H]2COc3cccc(Cl)c3O2)CC1 [Example 9, (S)-N-{[1-(8-chloro-1,4-benzodioxan-2-ylmethyl)-4-piperidyl]methyl}-2-methylpyridine-3-carboxamide] | 99% | –
6 | Nc1ncccc1C(=O)NCC1CCN(CC2COc3ccc(F)cc3O2)CC1 (stereo not drawn) [Example 10, 2-amino-N-{[1-(7-fluoro-1,4-benzodioxan-2-ylmethyl)-4-piperidyl]methyl}pyridine-3-carboxamide] | 100% | –
7 | COc1cccc2c1OC(CN1CCC(CNC(=O)c3cccnc3N)CC1)CO2 (stereo not drawn) [Example 11, 2-amino-N-{[1-(8-methoxy-1,4-benzodioxan-2-ylmethyl)-4-piperidyl]methyl}pyridine-3-carboxamide] | 99% | –
8 | O=C(NCC1CCN(C[C@H]2COc3ccc(Cl)cc3O2)CC1)c1ccccn1 [Example 12, (S)-N-{[1-(7-chloro-1,4-benzodioxan-2-ylmethyl)-4-piperidyl]methyl}pyridine-2-carboxamide] | 99% | –
9 | Cc1cccc2c1O[C@@H](CN1CCC(CNC(=O)c3cccnc3N)CC1)CO2 [Example 13, (S)-2-amino-N-{[1-(8-methyl-1,4-benzodioxan-2-ylmethyl)-4-piperidyl]methyl}pyridine-3-carboxamide] | 100% | –
10 | Nc1ncccc1C(=O)NCC1CCN(C[C@H]2COc3ccccc3O2)CC1 [Example 15, (S)-2-amino-N-{[1-(1,4-benzodioxan-2-ylmethyl)-4-piperidyl]methyl}pyridine-3-carboxamide] | 100% | –
11 | Nc1ccsc1C(=O)NCC1CCN(CC2COc3ccccc3O2)CC1 (stereo not drawn) [Example 16, 3-amino-N-{[1-(1,4-benzodioxan-2-ylmethyl)-4-piperidyl]methyl}thiophene-2-carboxamide] | 100% | –
12 | Nc1ccsc1C(=O)NCC1CCN(C[C@H]2COc3ccc(Cl)cc3O2)CC1 [Example 17, (S)-3-amino-N-{[1-(7-chloro-1,4-benzodioxan-2-ylmethyl)-4-piperidyl]methyl}thiophene-2-carboxamide] | 99% | –
13 | Nc1ncccc1C(=O)NCC1CCN(C[C@H]2COc3cccc(C(F)(F)F)c3O2)CC1 [Example 20, (S)-2-amino-N-{[1-(8-trifluoromethyl-1,4-benzodioxan-2-ylmethyl)-4-piperidyl]methyl}pyridine-3-carboxamide] | 101% | –
14 | O=C(NCC1CCN(C[C@H]2COc3ccc(Cl)cc3O2)CC1)c1cccnc1 [Example 22, (S)-N-{[1-(7-chloro-1,4-benzodioxan-2-ylmethyl)-4-piperidyl]methyl}pyridine-3-carboxamide] | 99% | –
15 | O=C(NCC1CCN(C[C@H]2COc3ccc(Cl)cc3O2)CC1)c1cccc2cccnc12 [Example 23, (S)-N-{[1-(7-chloro-1,4-benzodioxan-2-ylmethyl)-4-piperidyl]methyl}quinoline-8-carboxamide] | 98% | –
